Measured values: patent US6096874A (Board of Regents, the University of Texas System, priority 1995, dated 2000)
Read-outs that look alike come from different tables or passages of the source.

Test: in vivo
Set-up: species or system rat
Conditions: for Tumor uptake: 120 min; for tissue uptake at 0.5 h / tissue uptake at 2 h / tissue uptake at 4 h: iv; for tissue uptake at 0.5 h: 30 min
Method: In animal tissue distribution studies, each rate was given 8.9 μCi (0.15 ml) tracer intravenously. The tumor-bearing rats were killed at 1, 3, 6 and 24 h. […] The amount of DES given should occupy tumor estrogen receptor sites. The methods for inducing tumors in rats was as described by those of skill in the art (radiology). […]
Female Fisher 344 rats (250-275 g) (Harlan, Inc., Indianapolis, Ind.) were inoculated with mammary tumor cells using the 13762 tumor cell line (s.c. 10^5 cells/rat). After 14 days, a tumor size of 1-2 cm was observed. For ^131 I-ITX studies, five groups of rats (N=3/group) were anesthetized with ketamine (10-15 mg/rat). The trans ^131 I-ITX was given to four of the five groups (8.9 μCi/rat, i.v.) and biodistribution was studied at 1, 3, 6 and 24 h intervals. In blocking studies, the fifth group of rats was given diethylstilbestrol (DES) (1.2 mg/rat) for 1 h, followed by 8.9 μCi of ^131 I-ITX; biodistribution was studied 6 h later. The tissues were collected at different time intervals. The tissues were weighted and counted for radioactivity. The percent of injected dose per gram of tissue weight was calculated. […]

[1] = 2 h, pretreated with DES (blocking)
[2] = rat, blood, read-out: Blood uptake
[3] = rat, bone, read-out: Bone uptake
[4] = rat, kidney, read-out: Kidney uptake
[5] = rat, liver, read-out: Liver uptake
[6] = rat, lung, read-out: Lung uptake
[7] = rat, muscle, read-out: Muscle uptake
[8] = rat, tumor, read-out: Tumor uptake
[9] = rat, uterus, read-out: Uterus uptake

With `CCN(CC)CCOc1ccc(/C(=C(/CCC[18F])c2ccccc2)c2ccccc2)cc1` [[^18 F]FTX, (trans)[^18 F]Fluoromethyl-N,N-diethyltamoxifen] as the compound, how does the Blood uptake [1] read?
Its Blood uptake is 0.102 % injected dose/gram tissue.

What about the Bone uptake [1] of the same compound?
The Bone uptake was 0.278 % injected dose/gram tissue.

And the Kidney uptake [1]?
Its Kidney uptake is 1.241 % injected dose/gram tissue.

And the Liver uptake [1]?
Its Liver uptake is 7.242 % injected dose/gram tissue.

And the Lung uptake [1]?
Its Lung uptake is 2.084 % injected dose/gram tissue.

And the Muscle uptake [1]?
Its Muscle uptake is 0.131 % injected dose/gram tissue.

What about the Uterus uptake [1] of the same compound?
Its Uterus uptake is 0.435 % injected dose/gram tissue.

What about the Tumor uptake [1] of the same compound?
The Tumor uptake was 0.24±0.017 % injected dose/gram tissue.

What about the Tumor uptake (2 h, pretreated with DES (blocking), listed as [^18 F]FLUOROMETHYL-N,N-DIETHYL-TAMOXIFEN) of the same compound?
Its Tumor uptake is 0.244 % injected dose/gram tissue.

What about the Tumor uptake (2 h) of the same compound?
Its Tumor uptake is 0.405 % injected dose/gram tissue.

What about the tissue uptake at 0.5 h [2] of the same compound?
Its tissue uptake at 0.5 h is 0.169 %ID/g.

What about the tissue uptake at 2 h (rat, blood, 2 h, read-out: Blood uptake) of the same compound?
The tissue uptake at 2 h was 0.114 %ID/g.

What about the tissue uptake at 4 h [2] of the same compound?
The tissue uptake at 4 h was 0.069 %ID/g.

What about the tissue uptake at 0.5 h [3] of the same compound?
Its tissue uptake at 0.5 h is 0.264 %ID/g.

And the tissue uptake at 2 h (rat, bone, 2 h, read-out: Bone uptake)?
Its tissue uptake at 2 h is 0.482 %ID/g.

What about the tissue uptake at 4 h [3] of the same compound?
The tissue uptake at 4 h was 0.258 %ID/g.

What about the “Tissue uptake findings (in words)” value (rat, in vivo) of the same compound?
Its value is “increased uptake in the tumor and uterus can be blocked by pretreatment with diethylstilbestrol (DES)”.

What about the tissue uptake at 0.5 h [4] of the same compound?
Its tissue uptake at 0.5 h is 1.71 %ID/g.

What about the tissue uptake at 2 h (rat, kidney, 2 h, read-out: Kidney uptake) of the same compound?
Its tissue uptake at 2 h is 2.08 %ID/g.

And the tissue uptake at 4 h [4]?
Its tissue uptake at 4 h is 0.652 %ID/g.

And the tissue uptake at 0.5 h [5]?
Its tissue uptake at 0.5 h is 6.36 %ID/g.

What about the tissue uptake at 2 h (rat, liver, 2 h, read-out: Liver uptake) of the same compound?
The tissue uptake at 2 h was 6.93 %ID/g.

What about the tissue uptake at 4 h [5] of the same compound?
Its tissue uptake at 4 h is 6.5 %ID/g.

What about the tissue uptake at 0.5 h [6] of the same compound?
Its tissue uptake at 0.5 h is 3.82 %ID/g.

What about the tissue uptake at 2 h (rat, lung, 2 h, read-out: Lung uptake) of the same compound?
Its tissue uptake at 2 h is 3.5 %ID/g.

And the tissue uptake at 4 h [6]?
Its tissue uptake at 4 h is 1.31 %ID/g.

And the tissue uptake at 0.5 h [7]?
The tissue uptake at 0.5 h was 0.183 %ID/g.

And the tissue uptake at 2 h (rat, muscle, 2 h, read-out: Muscle uptake)?
The tissue uptake at 2 h was 0.234 %ID/g.

What about the tissue uptake at 4 h [7] of the same compound?
The tissue uptake at 4 h was 0.093 %ID/g.

What about the tissue uptake at 0.5 h [8] of the same compound?
The tissue uptake at 0.5 h was 0.256 %ID/g.

What about the tissue uptake at 2 h (rat, tumor, 2 h, read-out: Tumor uptake) of the same compound?
Its tissue uptake at 2 h is 0.41 ± 0.07 %ID/g.

What about the tissue uptake at 4 h [8] of the same compound?
Its tissue uptake at 4 h is 0.284 %ID/g.

What about the tissue uptake at 0.5 h [9] of the same compound?
Its tissue uptake at 0.5 h is 0.536 %ID/g.

And the tissue uptake at 4 h [9]?
Its tissue uptake at 4 h is 0.364 %ID/g.
